# In US9220775B2, “Binding molecules specific for HER3 and uses thereof” (Medlmmune LLC, priority 2011, dated 2015):
# Columns and labels:
# [1] = system: HER3, pHER3 and pAKT in SW620, SW480, Colo205, LOVO, HCT15 and Caco-2 cells; experiment: HRG ligand-dependent signaling in CRC tumor cell lines (Western blot); assay type: cell-based, human; conditions: antibodies 10 μg/mL, gefitinib 5 μM, HRG 50 ng/mL
# Procedure: In the presence of the HER3 ligand heregulin (HRG), HER3 heterodimerizes with EGFR or HER2, which leads to phosphorylation of HER3 and transmission of an oncogenic signal via phosphoinositide 3 kinase (PI3K) and protein kinase B (PKB), also known as AKT. A collection of CRC models were characterized to determine which receptor tyrosine kinase, EGFR or HER2, is the major driver of signaling through HER3. […] Briefly, cells were seeded into 24-well plates at a density of 1.5×10^5 cells per well. […] After 5-6 hours of incubation at 37° C., HRG was added at 50 ng/mL into one set of cells for 15 minutes at 37° C. All cells were then washed with cold PBS and lysed by the addition of 60 μL of 2×SDS (sodium dodecyl sulfate) sample buffer (Invitrogen). Lysates were transferred to 1.5 mL tubes and boiled for 5 minutes followed by chilling on ice for 2 minutes. Equal volumes (20 μL) of protein samples were resolved in NuPAGE Novex Bis-Tris gels (Invitrogen) before transfer to polyvinylidene fluoride (PVDF) membranes (Invitrogen). […] After washing, protein bands were detected on X-ray film by using SuperSignal West Pico Chemiluminescent Substrate (Pierce/Thermo Scientific).
# BT-474 xenograft tumors = experiment: Orthotopic human BT-474 breast cancer xenograft model; assay type: in vivo, mouse; conditions: antibodies 30 mg/kg, lapatinib 100 mg/kg oral
# Procedure: (§1) Orthotopic xenografts were established by injecting 1×10^7 cells per mouse (suspended in 50% matrigel) into the mammary fat pad on the right flank of 4 to 6-week-old athymic nu/nu mice. Estrogen pellets (0.36 mg) were placed under the skin of the left flank 1-2 days before cell injection. […] Lapatinib was administered by oral gavaging at 100 mg per kilogram body weight. Caliper measurements were used to calculate tumor volumes using the formula: tumor volume=π÷6(length×width×width) • for tumors grown in mice.
# [2] = system: MDA-MB-361 xenograft tumors; experiment: Orthotopic human MDA-MB-361 breast cancer xenograft model; assay type: in vivo, mouse; conditions: 2C2-YTE 30 mg/kg, trastuzumab and rhuMAb 2C4 10 mg/kg, lapatinib 100 mg/kg twice daily
# Procedure: as §1, with “5×10^6” for “1×10^7”
# MCF-7 xenograft tumors = experiment: Orthotopic human MCF-7 breast cancer xenograft model; assay type: in vivo, mouse; conditions: antibodies 10 mg/kg, paclitaxel 10 mg/kg i.v. every second day for ten days
# Procedure: as §1, with “Human MCF-7 breast cancer cells were maintained at 37° C. in a 5% CO2 incubator in Optimem medium containing glutamax, 2.4/L sodium bicarbonate, Hepes and 5% fetal bovine serum. Orthotopic” for “Orthotopic”, “5×10^6” for “1×10^7”, “Paclitaxel” for “Lapatinib”, “intravenously” for “by oral gavaging”, “10” for “100”
# SkBR3 cells = experiment: CDC assay with human serum as source of complement; assay type: cell-based; conditions: any concentration, data not shown
# Source text: ADCC is one recognized way through which a monoclonal antibody can confer its anti-tumor efficacy in vivo.
# Daudi cells = experiment: CDC assay against Daudi cells; assay type: cell-based; conditions: CD20-expressing cells, data not shown
# Procedure: ADCC is one recognized way through which a monoclonal antibody can confer its anti-tumor efficacy in vivo. […] 2C2-YTE was tested in CDC assays using human serum as a source of complement.
Compound,"HRG ligand-dependent signaling (HER3, pHER3, pAKT) [1]",Anti-tumor efficacy [2],other results
COc1cc2ncnc(Nc3ccc(F)c(Cl)c3)c2cc1OCCCN1CCOCC1 [gefitinib],no effect,,
CS(=O)(=O)CCNCc1ccc(-c2ccc3ncnc(Nc4ccc(OCc5cccc(F)c5)c(Cl)c4)c3c2)o1 [lapatinib],,showed anti-tumor efficacy,Anti-tumor efficacy (BT-474 xenograft tumors): tumor stasis
CC(=O)O[C@H]1C(=O)[C@@]2(C)[C@H]([C@H](OC(=O)c3ccccc3)[C@]3(O)C[C@H](OC(=O)[C@H](O)[C@@H](NC(=O)c4ccccc4)c4ccccc4)C(C)=C1C3(C)C)[C@]1(OC(C)=O)CO[C@@H]1C[C@@H]2O [paclitaxel],,,Anti-tumor efficacy (MCF-7 xenograft tumors): clear anti-tumor efficacy
pertuzumab [rhuMAb 2C4],inhibit HRG ligand-dependent signaling,showed anti-tumor efficacy,
rituximab [reference compound],,,CDC activity (SkBR3 cells): None of the antibodies including 2C2-YTE showed any detectable CDC activity; CDC activity (Daudi cells): substantial cell-kill activity
